ChEMBL document CHEMBL6121059, “Small Molecule Modulators of AMP-Activated Protein Kinase (AMPK) Activity and Their Potential in Cancer Therapy” (J Med Chem, 2025)

Tests used:
[1] = biological target: 5'-AMP-activated protein kinase catalytic subunit alpha-1 (Homo sapiens, UniProt Q13131); experiment: Inhibition of AMPKalpha1 (unknown origin)
[2] = biological target: Epithelial discoidin domain-containing receptor 1 (Homo sapiens) (UniProt Q08345); experiment: Inhibition of DDR1 (unknown origin) at 10 uM relative to control
Chain of Epithelial discoidin domain-containing receptor 1 (Homo sapiens) (Q08345 whole entry, the tested form may be a part): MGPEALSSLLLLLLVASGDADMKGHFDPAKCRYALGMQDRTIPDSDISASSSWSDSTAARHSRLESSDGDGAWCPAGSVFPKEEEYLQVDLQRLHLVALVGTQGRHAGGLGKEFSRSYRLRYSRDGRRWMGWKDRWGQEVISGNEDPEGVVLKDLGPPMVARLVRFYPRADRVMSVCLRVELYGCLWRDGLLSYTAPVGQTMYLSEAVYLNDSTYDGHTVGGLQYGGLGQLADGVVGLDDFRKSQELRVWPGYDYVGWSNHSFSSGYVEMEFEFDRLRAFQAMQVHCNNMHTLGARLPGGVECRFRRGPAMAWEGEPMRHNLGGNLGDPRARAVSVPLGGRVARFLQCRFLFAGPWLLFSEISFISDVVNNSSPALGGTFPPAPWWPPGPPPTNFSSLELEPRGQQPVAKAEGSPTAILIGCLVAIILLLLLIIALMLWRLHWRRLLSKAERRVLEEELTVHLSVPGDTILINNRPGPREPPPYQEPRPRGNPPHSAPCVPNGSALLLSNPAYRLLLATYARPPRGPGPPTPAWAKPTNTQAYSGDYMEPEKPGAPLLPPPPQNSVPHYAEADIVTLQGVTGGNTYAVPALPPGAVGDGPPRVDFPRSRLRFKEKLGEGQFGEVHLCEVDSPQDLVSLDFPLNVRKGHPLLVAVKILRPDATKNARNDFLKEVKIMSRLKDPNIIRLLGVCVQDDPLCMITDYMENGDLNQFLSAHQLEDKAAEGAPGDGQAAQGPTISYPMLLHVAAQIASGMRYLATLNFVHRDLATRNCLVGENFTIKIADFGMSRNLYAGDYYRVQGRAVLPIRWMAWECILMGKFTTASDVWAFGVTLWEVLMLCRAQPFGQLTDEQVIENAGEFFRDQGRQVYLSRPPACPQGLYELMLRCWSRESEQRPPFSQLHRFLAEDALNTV

Homo sapiens = species on record: Homo sapiens; experiment: Inhibition of SRC (unknown origin) at 10 uM relative to control
[3] = biological target: T1, TGF-beta receptor type-1 (Homo sapiens) (UniProt P36897); experiment: Inhibition of ALK5 (unknown origin) at 10 uM relative to control
T1 sequence (whole entry): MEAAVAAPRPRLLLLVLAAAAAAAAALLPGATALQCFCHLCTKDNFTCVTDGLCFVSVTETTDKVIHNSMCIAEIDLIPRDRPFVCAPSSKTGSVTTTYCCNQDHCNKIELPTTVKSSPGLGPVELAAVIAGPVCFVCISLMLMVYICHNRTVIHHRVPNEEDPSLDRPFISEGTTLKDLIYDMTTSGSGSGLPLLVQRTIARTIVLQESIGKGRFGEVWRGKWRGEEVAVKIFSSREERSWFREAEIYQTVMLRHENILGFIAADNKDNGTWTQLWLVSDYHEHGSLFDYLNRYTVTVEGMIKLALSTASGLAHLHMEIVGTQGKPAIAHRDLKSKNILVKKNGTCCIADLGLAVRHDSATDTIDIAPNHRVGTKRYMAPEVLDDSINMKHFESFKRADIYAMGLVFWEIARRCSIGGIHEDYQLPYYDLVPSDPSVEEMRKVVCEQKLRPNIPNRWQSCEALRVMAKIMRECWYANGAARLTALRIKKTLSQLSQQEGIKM

[4] = biological target: Serine/threonine-protein kinase PAK 1 (Homo sapiens) (UniProt Q13153); experiment: Activation of PAK1 (unknown origin) at 10 uM relative to control
Chain of Serine/threonine-protein kinase PAK 1 (Homo sapiens) (Q13153 whole entry, looked up): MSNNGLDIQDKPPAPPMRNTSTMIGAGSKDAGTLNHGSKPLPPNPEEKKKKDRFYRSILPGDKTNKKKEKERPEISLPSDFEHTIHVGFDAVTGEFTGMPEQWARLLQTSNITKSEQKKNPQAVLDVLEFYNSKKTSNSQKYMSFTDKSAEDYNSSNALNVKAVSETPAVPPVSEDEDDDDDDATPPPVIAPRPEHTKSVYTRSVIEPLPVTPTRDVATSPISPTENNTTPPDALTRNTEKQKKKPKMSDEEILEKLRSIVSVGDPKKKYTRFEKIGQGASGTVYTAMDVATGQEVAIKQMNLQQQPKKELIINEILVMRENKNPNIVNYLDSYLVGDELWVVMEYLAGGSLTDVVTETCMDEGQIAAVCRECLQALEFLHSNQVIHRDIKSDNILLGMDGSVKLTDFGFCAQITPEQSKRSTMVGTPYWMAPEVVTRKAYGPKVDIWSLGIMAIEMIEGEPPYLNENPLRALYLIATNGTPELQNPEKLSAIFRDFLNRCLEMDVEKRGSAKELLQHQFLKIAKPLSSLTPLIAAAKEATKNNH

[5] = biological target: Serine/threonine-protein kinase N1 (Homo sapiens) (UniProt Q16512); experiment: Activation of PRK1 (unknown origin) at 10 uM relative to control
Chain of Serine/threonine-protein kinase N1 (Homo sapiens) (Q16512 2-942 limits assumed): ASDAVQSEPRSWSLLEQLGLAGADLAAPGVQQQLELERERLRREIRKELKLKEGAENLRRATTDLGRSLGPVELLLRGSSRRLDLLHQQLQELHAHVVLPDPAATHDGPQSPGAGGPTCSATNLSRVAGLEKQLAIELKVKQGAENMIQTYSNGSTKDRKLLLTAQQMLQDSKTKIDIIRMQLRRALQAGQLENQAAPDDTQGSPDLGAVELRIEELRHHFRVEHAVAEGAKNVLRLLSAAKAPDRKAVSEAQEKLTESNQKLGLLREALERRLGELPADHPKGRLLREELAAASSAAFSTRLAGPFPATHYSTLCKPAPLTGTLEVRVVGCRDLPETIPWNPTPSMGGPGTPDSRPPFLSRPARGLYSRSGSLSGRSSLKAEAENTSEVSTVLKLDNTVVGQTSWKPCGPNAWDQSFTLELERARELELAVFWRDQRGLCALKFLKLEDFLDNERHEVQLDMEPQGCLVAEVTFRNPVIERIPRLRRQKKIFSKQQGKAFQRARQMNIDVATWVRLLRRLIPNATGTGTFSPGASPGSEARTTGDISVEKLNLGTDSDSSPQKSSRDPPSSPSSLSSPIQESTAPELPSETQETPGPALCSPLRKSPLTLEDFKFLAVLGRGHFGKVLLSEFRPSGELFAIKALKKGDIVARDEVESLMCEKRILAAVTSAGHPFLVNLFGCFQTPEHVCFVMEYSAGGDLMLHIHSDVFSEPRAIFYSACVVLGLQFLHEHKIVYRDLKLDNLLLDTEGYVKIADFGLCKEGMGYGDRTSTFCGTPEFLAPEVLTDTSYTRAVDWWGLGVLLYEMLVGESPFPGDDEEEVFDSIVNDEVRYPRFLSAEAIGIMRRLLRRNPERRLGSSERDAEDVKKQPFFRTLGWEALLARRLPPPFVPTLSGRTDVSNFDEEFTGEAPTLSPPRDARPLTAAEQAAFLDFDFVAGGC

[6] = biological target: Leucine-rich repeat serine/threonine-protein kinase 2 (Homo sapiens) (UniProt Q5S007); experiment: Activation of LRRK2 (unknown origin) at 10 uM relative to control
Chain of Leucine-rich repeat serine/threonine-protein kinase 2 (Homo sapiens) (Q5S007 whole entry): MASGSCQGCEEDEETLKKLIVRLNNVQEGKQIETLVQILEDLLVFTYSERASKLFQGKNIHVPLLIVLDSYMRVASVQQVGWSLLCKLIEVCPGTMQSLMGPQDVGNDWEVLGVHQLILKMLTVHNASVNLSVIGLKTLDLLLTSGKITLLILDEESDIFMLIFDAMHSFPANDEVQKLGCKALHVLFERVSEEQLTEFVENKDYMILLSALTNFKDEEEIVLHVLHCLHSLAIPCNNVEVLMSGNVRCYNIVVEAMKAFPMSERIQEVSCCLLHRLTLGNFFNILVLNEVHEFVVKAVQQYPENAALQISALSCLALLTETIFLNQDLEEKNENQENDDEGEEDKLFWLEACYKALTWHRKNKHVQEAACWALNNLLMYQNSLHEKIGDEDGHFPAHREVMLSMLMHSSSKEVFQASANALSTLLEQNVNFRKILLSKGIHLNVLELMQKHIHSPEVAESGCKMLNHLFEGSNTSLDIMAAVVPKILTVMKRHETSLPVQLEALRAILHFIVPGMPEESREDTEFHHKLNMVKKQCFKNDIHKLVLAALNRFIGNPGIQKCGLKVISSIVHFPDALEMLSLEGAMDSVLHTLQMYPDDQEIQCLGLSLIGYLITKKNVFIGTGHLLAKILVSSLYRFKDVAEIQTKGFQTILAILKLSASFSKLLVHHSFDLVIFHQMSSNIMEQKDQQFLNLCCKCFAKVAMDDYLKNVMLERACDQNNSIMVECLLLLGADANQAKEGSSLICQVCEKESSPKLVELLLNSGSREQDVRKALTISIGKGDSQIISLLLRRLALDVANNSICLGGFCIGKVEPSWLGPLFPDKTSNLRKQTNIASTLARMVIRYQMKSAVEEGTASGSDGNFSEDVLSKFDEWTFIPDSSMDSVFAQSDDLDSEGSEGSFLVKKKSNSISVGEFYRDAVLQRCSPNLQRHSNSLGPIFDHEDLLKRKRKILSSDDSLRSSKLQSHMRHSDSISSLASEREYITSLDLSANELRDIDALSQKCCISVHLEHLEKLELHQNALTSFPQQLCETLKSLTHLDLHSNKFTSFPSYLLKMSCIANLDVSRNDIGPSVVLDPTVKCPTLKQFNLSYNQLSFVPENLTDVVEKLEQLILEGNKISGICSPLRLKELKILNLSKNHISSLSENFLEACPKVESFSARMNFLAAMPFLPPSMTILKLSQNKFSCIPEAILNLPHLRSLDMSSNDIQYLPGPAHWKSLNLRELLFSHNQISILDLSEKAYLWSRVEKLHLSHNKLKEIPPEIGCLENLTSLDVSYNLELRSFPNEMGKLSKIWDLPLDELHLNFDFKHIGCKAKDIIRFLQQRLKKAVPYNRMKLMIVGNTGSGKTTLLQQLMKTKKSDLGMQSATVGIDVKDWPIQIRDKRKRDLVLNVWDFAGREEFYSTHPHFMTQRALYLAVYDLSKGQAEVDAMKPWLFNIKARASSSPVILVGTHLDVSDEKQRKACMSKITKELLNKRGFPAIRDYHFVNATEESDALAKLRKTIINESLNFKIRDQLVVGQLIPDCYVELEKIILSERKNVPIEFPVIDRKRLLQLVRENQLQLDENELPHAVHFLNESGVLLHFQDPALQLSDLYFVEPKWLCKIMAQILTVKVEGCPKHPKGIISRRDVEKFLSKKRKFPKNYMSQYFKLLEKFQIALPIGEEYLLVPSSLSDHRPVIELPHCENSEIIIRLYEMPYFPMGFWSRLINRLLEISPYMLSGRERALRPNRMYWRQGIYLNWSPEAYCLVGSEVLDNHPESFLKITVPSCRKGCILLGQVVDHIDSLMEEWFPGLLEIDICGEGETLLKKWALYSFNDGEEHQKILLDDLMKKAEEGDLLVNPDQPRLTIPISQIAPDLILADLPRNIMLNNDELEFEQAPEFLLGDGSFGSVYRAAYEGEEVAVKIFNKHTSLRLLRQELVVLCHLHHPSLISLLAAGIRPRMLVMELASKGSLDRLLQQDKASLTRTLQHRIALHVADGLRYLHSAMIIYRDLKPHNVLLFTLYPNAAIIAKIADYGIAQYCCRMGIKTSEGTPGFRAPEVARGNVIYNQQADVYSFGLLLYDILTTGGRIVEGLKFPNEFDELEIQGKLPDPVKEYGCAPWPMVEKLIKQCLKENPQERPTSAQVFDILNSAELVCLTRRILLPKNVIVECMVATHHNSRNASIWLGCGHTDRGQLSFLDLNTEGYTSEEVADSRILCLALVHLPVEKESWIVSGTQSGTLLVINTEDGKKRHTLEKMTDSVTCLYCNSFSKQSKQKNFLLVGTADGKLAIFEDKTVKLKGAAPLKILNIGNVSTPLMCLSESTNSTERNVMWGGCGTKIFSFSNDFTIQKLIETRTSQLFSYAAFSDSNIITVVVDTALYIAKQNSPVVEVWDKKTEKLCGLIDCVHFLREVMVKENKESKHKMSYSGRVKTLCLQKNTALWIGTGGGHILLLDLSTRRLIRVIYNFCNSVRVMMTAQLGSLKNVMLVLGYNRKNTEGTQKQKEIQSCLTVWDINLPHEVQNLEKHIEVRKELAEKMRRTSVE

[7] = Inhibition of full length GST-tagged human AMPKalpha2/beta1/gamma1 using HMRSAMSFAEPG biotinylated peptide as substrate in presence of 10 uM ATP by TR-FRET assay
VCaP = experiment: Antiproliferative activity against human VCaP cells assessed as reduction in cell viability incubated for 3 days by cell-titer glo assay; format: functional, cell-based; conditions: 72 h
LNCaP = experiment: Inhibition of cellular AMPK in human LNCaP cells assessed as reduction in pACC1 levels in cell lysates by HTRF assay
IMR-32 = experiment: Inhibition of cellular AMPK in human IMR-32 cells assessed as reduction in pACC1 levels in cell lysates by HTRF assay
COLO 320 = experiment: Inhibition of cellular AMPK in human COLO 320 cells assessed as reduction in pACC1 levels in cell lysates by HTRF assay
[8] = Inhibition of full length GST-tagged human AMPKalpha2/beta1/gamma1 using HMRSAMSFAEPG biotinylated peptide as substrate in presence of 2 mM ATP by TR-FRET assay
[9] = Binding affinity to AMPK (unknown origin) assessed as inhibition constant; design: species or system Homo sapiens
[10] = Inhibition of AMPK (unknown origin); design: species or system Homo sapiens

An IC50 [1] of 400 nM was found for `CNC(=O)c1ccccc1Oc1nc(Nc2cc(OC)c(OC)c(OC)c2)ncc1Br` in this work.

With `O=C(O)Cc1csc(Nc2ccc(C(F)(F)F)cc2)n1` the inhibition [2] was > 50%, the inhibition (Homo sapiens) was > 50% and the inhibition [3] was > 50%. The activation [4] was 30%, the activation [5] was 30% and the activation [6] was 30%.

An IC50 [7] of 1.4 nM, an IC50 (VCaP) of ~100 nM and an IC50 (LNCaP) of ~100 nM were found for `CCc1ccccc1C(=O)Nc1n[nH]c2c(C)c(F)c(C3C(C#N)=C(C)N(C)C(C)=C3C#N)cc12` [BAY-3827] in this work. It also gave an IC50 (IMR-32) of ~150 nM, an IC50 (COLO 320) of ~400 nM and an IC50 [8] of 15 nM.

A Ki [9] of 109 nM and an IC50 [10] of 2380 nM were found for `c1cc(-c2cnn3cc(-c4ccc(OCCN5CCCCC5)cc4)cnc23)ccn1` [DORSOMORPHIN] in this work.

An IC50 [10] of 40 nM was found for `CCN(CC)CCNC(=O)c1c(C)[nH]c(/C=C2\C(=O)Nc3ccc(F)cc32)c1C` [SUNITINIB] in this work.
